This is an account of results in article PMC5109050, “Structure and Function of Cyanobacterial DHDPS and DHDPR” (Scientific Reports, 2016).

Experiment [1] has as its target dihydrodipicolinate synthase from Anabaena variabilis (Anabaena variabilis) (UniProt N8VIX7). The experiment is described as follows: AUC; sedimentation velocity, 20 °C, 40,000 rpm, absorbance at 230 nm, initial concentrations 0.1-7.0 μM (size-distribution analysis at 4.0 μM); single species, tetramer.
A further experiment has as its target T1, Av-DHDPR (Trichormus variabilis, UniProt Q3MFY8).
T1 construct: gene dapB; synthetic codon-optimised dapB in pRSET-A, His-tagged, E. coli BL21-DE3 pLysS, IMAC; homotetramer 139 kDa; monomer of 287 residues in crystal
T1 sequence (Q3MFY8 2-278): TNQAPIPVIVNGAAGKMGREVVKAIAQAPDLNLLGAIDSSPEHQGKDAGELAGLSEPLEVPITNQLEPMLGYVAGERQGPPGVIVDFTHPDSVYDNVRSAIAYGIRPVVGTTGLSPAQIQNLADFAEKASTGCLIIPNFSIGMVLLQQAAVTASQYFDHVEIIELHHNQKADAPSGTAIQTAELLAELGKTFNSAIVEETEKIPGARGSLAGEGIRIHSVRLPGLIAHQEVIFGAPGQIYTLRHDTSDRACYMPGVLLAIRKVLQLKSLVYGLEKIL
The experiment is described as follows: microscale thermophoresis, label-free, single-site fit. The class given is binding.

For experiment [2], the target named is dihydrodipicolinate reductase from Anabaena variabilis (Anabaena variabilis) (UniProt N8WZH2). The experiment is described as follows: AUC; sedimentation velocity, 20 °C, 40,000 rpm, absorbance at 230 nm, initial concentrations 0.1-7.0 μM (size-distribution analysis at 4.0 μM); single species, tetramer.
The next experiment concerns the target T2, Vv-DHDPS (Vitis vinifera, UniProt D7U7T8).
T2 construct: gene VIT_15s0048g00750; control enzyme; construct not described here
T2 sequence (D7U7T8 40-365 limits assumed): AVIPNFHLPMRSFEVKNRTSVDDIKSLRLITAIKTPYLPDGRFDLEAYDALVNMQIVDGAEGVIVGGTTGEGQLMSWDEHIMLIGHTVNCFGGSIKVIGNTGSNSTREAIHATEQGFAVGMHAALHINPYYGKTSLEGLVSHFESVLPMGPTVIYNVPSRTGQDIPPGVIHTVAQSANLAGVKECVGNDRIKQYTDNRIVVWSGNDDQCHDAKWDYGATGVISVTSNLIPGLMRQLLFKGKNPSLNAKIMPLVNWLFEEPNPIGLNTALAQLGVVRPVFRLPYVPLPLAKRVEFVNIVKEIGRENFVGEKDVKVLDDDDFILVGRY
The experiment is described as follows: DHDPS-DHDPR coupled assay, dose response, four-parameter logistic. In kind it is biochemical. Conditions: 30 °C; allosteric feedback inhibitor; control enzyme.

For another experiment, the target named is T3, Ec-DHDPS (Escherichia coli, UniProt P0A6L2).
T3 construct: gene dapA; control enzyme; construct not described here
T3 sequence (P0A6L2 1-292): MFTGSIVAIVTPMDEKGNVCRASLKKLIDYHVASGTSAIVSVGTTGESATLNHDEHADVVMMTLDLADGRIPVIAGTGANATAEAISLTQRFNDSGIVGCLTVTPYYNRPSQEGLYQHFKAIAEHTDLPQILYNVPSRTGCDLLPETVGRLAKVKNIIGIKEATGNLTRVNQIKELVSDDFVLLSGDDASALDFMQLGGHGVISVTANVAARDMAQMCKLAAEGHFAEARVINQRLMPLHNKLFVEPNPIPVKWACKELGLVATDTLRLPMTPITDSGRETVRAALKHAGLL
The experiment is described as above. In kind it is biochemical.

Experiment [3] addresses T4, Av-DHDPS (Trichormus variabilis, UniProt Q3M723).
T4 construct: gene dapA; synthetic codon-optimised dapA in pRSET-A, His-tagged, E. coli BL21-DE3 pLysS, IMAC; homotetramer 147 kDa; monomer of 297 residues in crystal; active-site Lys164
Described as above. In kind it is biochemical. The source says: DHDPS-DHDPR coupled assay, dose response, four-parameter logistic on Av-DHDPS

Experiment [4] deals with T4, Av-DHDPS. The experiment is described as follows: X-ray crystallography, […] Å. Conditions: covalent; bound to Lys164 in active site; crystallised with 10 mM pyruvate, pH 6.5. In kind it is binding.

T4 sequence (Q3M723 entry or part of it): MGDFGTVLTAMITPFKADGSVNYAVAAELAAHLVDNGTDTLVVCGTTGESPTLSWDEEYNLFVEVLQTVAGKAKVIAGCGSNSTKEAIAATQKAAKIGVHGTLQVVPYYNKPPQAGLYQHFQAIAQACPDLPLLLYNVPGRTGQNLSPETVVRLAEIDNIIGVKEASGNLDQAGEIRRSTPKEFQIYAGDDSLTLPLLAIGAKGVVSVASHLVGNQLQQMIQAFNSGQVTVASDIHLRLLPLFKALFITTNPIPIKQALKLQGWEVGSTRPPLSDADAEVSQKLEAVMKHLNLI

In experiment [1], “dihydrodipicolinate synthase from Anabaena variabilis (from UniProt N8VIX7 1-299) (enzyme)” had a stoichiometry N of 4. For the molecule `O=C(O)c1cccc(C(=O)O)n1` [2,6-pyridinedicarboxylate], on Av-DHDPR, the Kd stood at 100 ± 8.2 µM. The molecule “dihydrodipicolinate reductase from Anabaena variabilis (from UniProt N8WZH2 1-273) (enzyme)” showed a stoichiometry N in experiment [2] of 4. For the molecule `NCCCC[C@H](N)C(=O)O` [(S)-lysine], the results for the IC50 against Vv-DHDPS, at Ec-DHDPS and against Av-DHDPS [3] were 30 µM, 210 µM and 68 µM, respectively. With `CC(=O)C(=O)O` [pyruvate], at Av-DHDPS [4], the “X-ray crystallography, 1.92 Å” value is on record as “Shown in purple is the substrate pyruvate bonded to Lys164 in Av-DHDPS”.
